# In patent publication US8461150B2, “Chalcone linked pyrrolo[2,1-c][1, 4]benzodiazepine hybrids as potential anticancer agents and process for the preparation thereof” (Council of Scientific & Industrial Research, priority 2008, dated 2013):
# What was measured:
# [1] = test system: duplex-form calf thymus DNA (CT-DNA); test: Thermal denaturation studies with calf thymus DNA; format: binding; settings: [PBD]:[DNA] molar ratio 1:5, CT-DNA 100 μM, ligand 20 μM, pH 7.00; for ΔTμ (° C.) after incubation at 37 °C. for 0 h: 0 h incubation; for ΔTμ (° C.) after incubation at 37 °C. for 18 h: 18 h incubation
# Description: These compounds have also been subjected to thermal denaturation studies with duplex-form calf thymus DNA (CT-DNA) using an modification of a reported procedure. Working solutions in aqueous buffer (10 mM NaH2PO4/Na2HPO4, 1 mM Na2EDTA, pH 7.00+0.01) containing CT-DNA (100 μm in phosphate) and the PBD (20 μm) have been prepared by addition of concentrated PBD solutions in DMSO to obtain a fixed [PBD]/[DNA] molar ratio of 1:5. The DNA-PBD solutions have been incubated at 37° C. for 0 and 18 h prior to analysis. Samples have been monitored at 260 nm using a Beckman DU-800 spectrophotometer fitted with high performance temperature controller, and heated at 1° C. min^−1 in the 40-110° C. range. DNA helix→coil transition temperatures (Tm) have been obtained from the maxima in the d(A260)/d T derivative plots. Drug-induced alterations in DNA melting behavior are given by: ΔTm=Tm(DNA+PBD)−Tm(DNA alone), where the Tm value for the PBD-free CT-DNA is 68.5±0.01.
# [2] = test system: Breast cancer cell lines; test: NCI in vitro anticancer screen, SRB assay, 48 h, panel average; format: cell-based, human; settings: average of six to eight cell lines, 48 h exposure
# Description: (§1) Biological Activity: The in vitro cell line studies were carried out at the National Cancer Institute, Maryland, USA.
# (§2) Cytotoxicity: • The compounds 6b) 7-Methoxy-8-{4-[1-(4-fluorophenyl)-3-(4-hydroxy-3-methoxyphenyl)-2-propen-1-one]butyl}-oxy-(11aS)-1,2,3,11a-5H-pyrrolo[2,1-c][1,4]benzodiazepin-5-one; • (6c) 7-Methoxy-8-{5-[1-(4-fluorophenyl)-3-(4-hydroxy-3-methoxyphenyl)-2-propen-1-one]pentyl}-oxy-(11aS)-1,2,3,11a-5H-pyrrolo[2,1-c][1,4]benzodiazepin-5-one; • (6g) 7-Methoxy-8-{3-[1-(2-hydroxyphenyl)-3-(4-hydroxy-3-methoxyphenyl)-2-propen-1-one]propyl}-oxy-(11aS)-1,2,3,11a-5H-pyrrolo[2,1-c][1,4]benzodiazepin-5-one; • (10a) 7-Methoxy-8-{3-[3-(4-hydroxy-3-methoxyphenyl)-1-(2,4-dimethyl-3-quinolyl)-2-propen-1-one]propyl}-oxy-(11aS)-1,2,3,11a-5H-pyrrolo[2,1-c][1,4]benzodiazepin-5-one • (10b) 7-Methoxy-8-{4-[3-(4-hydroxy-3-methoxyphenyl)-1-(2,4-dimethyl-3-quinolyl)-2-propen-1-one]butyl}-oxy-(11aS)-1,2,3,11a-5H-pyrrolo[2,1-c][1,4]benzodiazepin-5-one; were evaluated for in vitro anticancer activity against […] derived from […] (leukemia, ovarian, renal, melanoma, CNS, colon, prostate, lung, cervix and breast cancer) as shown in (Table 1, 2 and 3)
# (§3) 6b, 6c, 6g, 10a and 10b were evaluated for in vitro anticancer activity against sixty human tumour cells derived from nine cancer types (leukemia, non-small-cell lung, colon, CNS, melanoma, ovarian, prostate, renal and breast cancer) as shown in (Table 1 and 2). For the compound, dose response curves for each cell line were measured at a minimum of five concentrations at 10 fold dilutions. A protocol of 48 h continuous drug exposure was used and a sulforhodamine B (SRB) protein assay was used to estimate cell viability or growth. The concentration causing 50% cell growth inhibition (GI50), total cell growth inhibition (TGI 0% growth) and 50% cell death (LC50, −50% growth) compared with the control was calculated.
# (§4) Each cancer type represents the average of six to eight different cancer cell lines.
# [3] = test system: CNS cancer cell lines; test: as above; format: cell-based, human; settings: average of six to eight cell lines, 48 h exposure
# Description: as §1, §2, §3, §4
# [4] = test system: Colon cancer cell lines; test: as above; format: cell-based, human; settings: average of six to eight cell lines, 48 h exposure
# Description: as §1, §2, §3, §4
# [5] = test system: Leukemia cancer cell lines; test: as above; format: cell-based, human; settings: average of six to eight cell lines, 48 h exposure
# Description: as §1, §2, §3, §4
# [6] = test system: Melanoma cancer cell lines; test: as above; format: cell-based, human; settings: average of six to eight cell lines, 48 h exposure
# Description: as §1, §2, §3, §4
# [7] = test system: Non-small cell lung cancer cell lines; test: as above; format: cell-based, human; settings: average of six to eight cell lines, 48 h exposure
# Description: as §1, §2, §3, §4
# [8] = test system: Ovarian cancer cell lines; test: as above; format: cell-based, human; settings: average of six to eight cell lines, 48 h exposure
# Description: as §1, §2, §3, §4
# [9] = test system: Prostate cancer cell lines; test: as above; format: cell-based, human; settings: average of six to eight cell lines, 48 h exposure
# Description: as §1, §2, §3, §4
# [10] = test system: Renal cancer cell lines; test: as above; format: cell-based, human; settings: average of six to eight cell lines, 48 h exposure
# Description: as §1, §2, §3, §4
# [11] = test system: human tumour cell lines; test: In vitro cytotoxicity, mean graph midpoints (MG_MID) over human tumour cell lines; format: cell-based; settings: human tumour cell lines, 48 h exposure, SRB
# Description: as §1, §3
# [12] = test system: 786-0 (Renal); test: Cytotoxicity in selected cancer cell lines (SRB, 48 h); format: cell-based, human
# Description: as §1, §3
# (§5) Each cancer type represents the average of six to nine different cancer cell lines. In vitro evaluation of cytotoxic activity. The compound 6b, 6c, 6g 10a and 10b were evaluated for in vitro anticancer activity against nine human tumour cells derived from six cancer types (leukemia, colon, prostate, melanoma, ovarian, lung, cervix and breast cancer) as shown in Table 3. […] Compounds 6b, 6c, 6g, 10a and 10b have been evaluated for their in vitro cytotoxicity in selected human cancer cell lines of colon (Colo205), lung (NCI-H522, NCI-H226), colon (colo-205), prostate (DU145, PC3), ovarian (IGROV1, HT1080), and breast (MDA-MB-435, Zr-75-1), melanoma (LOXMIVI, VACC-62, SK-MEL-5) origin. A protocol of 48 h continuous drug exposure has been used and an […] has been used to estimate cell viability or growth. The results are expressed as percent of cell growth determined relative to that of untreated control cells
# [13] = test system: A498 (Renal); test: as above; format: cell-based, human
# Description: as §1, §3, §5
# [14] = test system: ACHN (Renal); test: as above; format: cell-based, human
# Description: as §1, §3, §5
# [15] = test system: CAKI-1 (Renal); test: as above; format: cell-based, human
# Description: as §1, §3, §5
# [16] = test system: CCRF-CEM (Leukemia); test: as above; format: cell-based, human
# Description: as §1, §3, §5
# [17] = test system: HCT-116 (Colon); test: as above; format: cell-based, human
# Description: as §1, §3, §5
# [18] = test system: HCT-15 (Colon); test: as above; format: cell-based, human
# Description: as §1, §3, §5
# [19] = test system: HL-60(TB) (Leukemia); test: as above; format: cell-based, human
# Description: as §1, §3, §5
# [20] = test system: LOX IMVI (Melanoma); test: as above; format: cell-based, human
# Description: as §1, §3, §5
# [21] = test system: M14 (Melanoma); test: as above; format: cell-based, human
# Description: as §1, §3, §5
# [22] = test system: MALME-3M (Melanoma); test: as above; format: cell-based, human
# Description: as §1, §3, §5
# [23] = test system: MDA-MB-231/ATCC (Breast); test: as above; format: cell-based, human
# Description: as §1, §3, §5
# [24] = test system: NCI-H226 (Non-small cell lung); test: as above; format: cell-based, human
# Description: as §1, §3, §5
# [25] = test system: NCI-H23 (Non-small cell lung); test: as above; format: cell-based, human
# Description: as §1, §3, §5
# [26] = test system: NCI-H522 (Non-small cell lung); test: as above; format: cell-based, human
# Description: as §1, §3, §5
# [27] = test system: NCI/ADR-RES (Breast); test: as above; format: cell-based, human
# Description: as §1, §3, §5
# [28] = test system: OVCAR-3 (Ovarian); test: as above; format: cell-based, human
# Description: as §1, §3, §5
# [29] = test system: RPMI-8226 (Leukemia); test: as above; format: cell-based, human
# Description: as §1, §3, §5
# [30] = test system: SF-539 (CNS); test: as above; format: cell-based, human
# Description: as §1, §3, §5
# [31] = test system: SK-MEL-5 (Melanoma); test: as above; format: cell-based, human
# Description: as §1, §3, §5
# [32] = test system: SW-620 (Colon); test: as above; format: cell-based, human
# Description: as §1, §3, §5
# [33] = test system: TK-10 (Renal); test: as above; format: cell-based, human
# Description: as §1, §3, §5
# [34] = test system: U251 (CNS); test: as above; format: cell-based, human
# Description: as §1, §3, §5
# [35] = test system: UACC-257 (Melanoma); test: as above; format: cell-based, human
# Description: as §1, §3, §5
# [36] = test system: UACC-62 (Melanoma); test: as above; format: cell-based, human
# Description: as §1, §3, §5
# [37] = test system: UO-31 (Renal); test: as above; format: cell-based, human
# Description: as §1, §3, §5
structure (smiles),measurement,setting,value
"COc1cc(C=CC(=O)c2ccc(F)cc2)ccc1OCCCOc1cc2c(cc1OC)C(=O)N1CCC[C@H]1C=N2 [6a, 7-Methoxy-8-{3-[1-(4-fluorophenyl)-3-(4-hydroxy-3-methoxyphenyl)-2-propen-1-one]propyl}-oxy-(11aS)-1,2,3,11a-5H-pyrrolo[2,1-c][1,4]benzodiazepin-5-one]",ΔTμ (° C.) after incubation at 37 °C. for 0 h,[1],1.7 °C
same,ΔTμ (° C.) after incubation at 37 °C. for 18 h,[1],2.4 °C
"COc1cc(C=CC(=O)c2ccccc2O)ccc1OCCCOc1cc2c(cc1OC)C(=O)N1CCC[C@H]1C=N2 [6d, 7-Methoxy-8-{3-[1-(2-hydroxyphenyl)-3-(4-hydroxy-3-methoxyphenyl)-2-propen-1-one]propyl}-oxy-(11aS)-1,2,3,11a-5H-pyrrolo[2,1-c][1,4]benzodiazepin-5-one]",ΔTμ (° C.) after incubation at 37 °C. for 0 h,[1],2.1 °C
same,ΔTμ (° C.) after incubation at 37 °C. for 18 h,[1],2.6 °C
"COc1cc(/C=C/C(=O)c2ccc(O)cc2)ccc1OCCCOc1cc2c(cc1OC)C(=O)N1CCC[C@H]1C=N2 [6g, 7-Methoxy-8-{3-[1-(4-hydroxyphenyl)-3-(4-hydroxy-3-methoxyphenyl)-2-propen-1-one]propyl}-oxy-(11aS)-1,2,3,11a-5H-pyrrolo[2,1-c][1,4]benzodiazepin-5-one]",Log GI50 (concentration in mol/L causing 50% growth inhibition),[2],−6.57 mol/L
same,Log GI50 (concentration in mol/L causing 50% growth inhibition),[3],−5.62 mol/L
same,Log GI50 (concentration in mol/L causing 50% growth inhibition),[4],−5.85 mol/L
same,Log GI50 (concentration in mol/L causing 50% growth inhibition),[5],−5.62 mol/L
same,Log GI50 (concentration in mol/L causing 50% growth inhibition),[6],−5.65 mol/L
same,Log GI50 (concentration in mol/L causing 50% growth inhibition),[7],−5.82 mol/L
same,Log GI50 (concentration in mol/L causing 50% growth inhibition),[8],−5.56 mol/L
same,Log GI50 (concentration in mol/L causing 50% growth inhibition),[9],−4.63 mol/L
same,Log GI50 (concentration in mol/L causing 50% growth inhibition),[10],−5.67 mol/L
same,Log10LC50 mean graph midpoint (MG_MID),[11]; 50% cell death,−4.58
same,Log10GI50 mean graph midpoint (MG_MID),[11],−5.78
same,Log10TGI mean graph midpoint (MG_MID),[11]; total cell growth inhibition,−5.86
same,GI50,[12],24.9 µM
same,GI50,[13],29 µM
same,GI50,[14],46.1 µM
same,GI50,[15],22.9 µM
same,GI50,[16],37.4 µM
same,GI50,[17],14.6 µM
same,GI50,[18],18.4 µM
same,GI50,[19],49.5 µM
same,GI50,[20],15 µM
same,GI50,[21],18.8 µM
same,GI50,[22],36.2 µM
same,GI50,[23],14.2 µM
same,GI50,[24],28.4 µM
same,GI50,[25],22.5 µM
same,GI50,[26],18.3 µM
same,GI50,[27],28.7 µM
same,GI50,[28],46.3 µM
same,GI50,[29],46.8 µM
same,GI50,[30],33.7 µM
same,GI50,[31],23.3 µM
same,GI50,[32],26.9 µM
same,GI50,[33],31.4 µM
same,GI50,[34],19.8 µM
same,GI50,[35],15.9 µM
same,GI50,[36],22.5 µM
same,GI50,[37],45.2 µM
"COc1cc(C=CC(=O)c2c(C)nc3ccccc3c2C)ccc1OCCCCCOc1cc2c(cc1OC)C(=O)N1CCC[C@H]1C=N2 [10c, 7-Methoxy-8-{5-[3-(4-hydroxy-3-methoxyphenyl)-1-(2,4-dimethyl-3-quinolyl)-2-propen-1-one]pentyl}-oxy-(11aS)-1,2,3,11a-5H-pyrrolo[2,1-c][1,4]benzodiazepin-5-one]",ΔTμ (° C.) after incubation at 37 °C. for 0 h,[1],4.7 °C
same,ΔTμ (° C.) after incubation at 37 °C. for 18 h,[1],5.1 °C
"COc1cc(C=CC(=O)c2c(C)nc3ccccc3c2C)ccc1OCCCCCCOc1cc2c(cc1OC)C(=O)N1CCC[C@H]1C=N2 [10d, 7-Methoxy-8-{6-[3-(4-hydroxy-3-methoxyphenyl)-1-(2,4-dimethyl-3-quinolyl)-2-propen-1-one]hexyl}-oxy-(11aS)-1,2,3,11a-5H-pyrrolo[2,1-c][1,4]benzodiazepin-5-one]",ΔTμ (° C.) after incubation at 37 °C. for 0 h,[1],4.9 °C
same,ΔTμ (° C.) after incubation at 37 °C. for 18 h,[1],5.3 °C
"COc1cc2c(cc1O)N=CC1CCCN1C2=O (stereo not drawn) [DC-81, reference compound]",ΔTμ (° C.) after incubation at 37 °C. for 0 h,[1],0.3 °C
same,ΔTμ (° C.) after incubation at 37 °C. for 18 h,[1],0.7 °C
